{
  "source": "patent US10973831B2",
  "about": "“Fluoropiperidine compounds as pure 5-HT 6 receptor antagonists” (SUVEN LIFE SCIENCES LIMITED, priority 2017, dated 2021)",
  "key": {"[1]": {"assay": "Rodent pharmacokinetic study", "assay_type": "in vivo, male Wistar rats", "conditions": "male, Wistar, plasma, rat", "procedure": "Male Wistar rats (260±50 grams) were used as experimental animals. Animals were housed individually in polypropylene cage. Two days prior to study, male Wistar rats were anesthetized with isoflurane for surgical placement of jugular vein catheter. Rats were randomly divided for oral (3 mg/kg) and intravenous (1 mg/kg) dosing (n=3/group) and fasted overnight before oral dosing (p.o.). However, rats allocated to intravenous dosing food and water was provided ad libitum.\nAt pre-determined point, blood was collected through jugular vein and replenished with an equivalent volume of normal saline. Collected blood was transferred into a labeled eppendorf tube containing 10 μL, of heparin as an anticoagulant. Typically blood samples were collected at following time points: 0.08, 0.25, 0.5, 1, 2, 4, 6, 8, and 24 hours post dose. Blood was centrifuged at 4000 rpm for 10 minutes. Plasma was separated and stored frozen at −80° C. until analysis. The concentrations of the test compounds were quantified in plasma by qualified LC-MS/MS method using suitable extraction technique. The test compounds were quantified in the calibration range around 1-1000 ng/mL in plasma. Study samples were analyzed using calibration samples in the batch and quality control samples spread across the batch.\nPharmacokinetic parameters Cmax, AUC1, T1/2, Clearance and Bioavailability (F) were calculated by non-compartmental model using standard non-compartmental model by using Phoenix WinNonlin 6.2 or 6.4 version Software package."}, "[2]": {"system": "extracellular levels of acetylcholine in ventral hippocampus", "assay": "Acetylcholine modulation in ventral hippocampus (microdialysis)", "assay_type": "in vivo, male Wistar rats", "conditions": "Example 1 10 mg/kg; for acetylcholine peak levels, % of pre-dose levels: p.o. in combination with donepezil 1 mg/kg, s.c.", "excerpt": "Four groups of male Wistar rats (240-300 g body weight) were stereotaxically implanted with a microdialysis guide cannula in ventral hippocampus (AP: −5.2 mm, ML: +5.0 mm, DV: −3.8 mm) under isoflurane anesthesia. Co-ordinates were taken according to atlas for the rat brain (Paxinos and Watson 2004) with reference points taken from bregma and vertical from the skull. […] After surgical recovery of 4-5 days, male Wistar rats were connected to dual quartz lined two-channel liquid swivel (Instech, UK) on a counter balance lever arm, which allowed unrestricted movements of the animal. […] On the day of study, probe was perfused with artificial cerebrospinal fluid (aCSF; NaCl 147 mM, KC13 mM, MgCl2 1 mM, CaCl2. 2H2O 1.3 mM, NaH2PO4.2H2O 0.2 mM and Na2HPO4.7H2O 1 mM, pH 7.2) at a flow rate of 1.5 μL/min and a stabilization period of 2 h was maintained. […] Dialysate samples were collected for an additional period of 4 h post treatment of example 1. Dialysates were stored below −50° C. prior to analysis. Acetylcholine in dialysate was quantified using LC-MS/MS method in the calibration range of 0.099 nmol/L-70.171 nmol/L. […] Incorrect probe placement was considered as criteria to reject the data from animal."}},
  "data": [
    {"smiles": "Cl.O=S(=O)(c1ccccc1)c1ccc2c(c1)OCCN2C1CCNCC1F", "note": "(single isomer, unassigned; peak iii) [Example 1, 7-Phenylsulfonyl-4-(3-fluoropiperidin-4-yl)-3,4-dihydro-2H-benzo[1,4]oxazine hydrochloride (Peak III)]", "values": [
      {"measurement": "AUC(0-t)", "setting": "[1]; intravenous (bolus), 1 mg/kg", "result": "412 ± 37", "unit": "ng·h/mL"},
      {"measurement": "clearance", "setting": "[1]; intravenous (bolus), 1 mg/kg", "result": "40 ± 3", "unit": "mL/min/kg"},
      {"measurement": "half-life", "setting": "[1]; intravenous (bolus), 1 mg/kg", "result": "4.5 ± 0.1", "unit": "h"},
      {"measurement": "bioavailability", "setting": "[1]; oral (gavage) 3 mg/kg vs intravenous 1 mg/kg, read-out: F (Bioavailability)", "result": "81 ± 1", "unit": "%"},
      {"measurement": "AUC(0-t)", "setting": "[1]; oral (gavage), 3 mg/kg", "result": "1000 ± 15", "unit": "ng·h/mL"},
      {"measurement": "Cmax", "setting": "[1]; oral (gavage), 3 mg/kg", "result": "84 ± 14", "unit": "ng/mL"},
      {"measurement": "half-life", "setting": "[1]; oral (gavage), 3 mg/kg", "result": "5.6 ± 0.9", "unit": "h"},
      {"measurement": "Mean area under the curve values (AUC) of percent change in acetylcholine", "setting": "[2]; p.o. + donepezil + memantine, compared to donepezil and memantine combination", "result": "significantly higher"},
      {"measurement": "Mean area under the curve values (AUC) of percent change in acetylcholine", "setting": "[2]; p.o. + donepezil, compared to donepezil 1 mg/kg, s.c. alone", "result": "significantly higher"},
      {"measurement": "acetylcholine peak levels, % of pre-dose levels", "setting": "[2]", "result": "1445±247", "unit": "%"},
      {"measurement": "acetylcholine peak levels, % of pre-dose levels", "setting": "[2]; s.c. and memantine 1 mg/kg", "result": "2822±415", "unit": "%"}
    ]}
  ]
}
